From patent US7528106B2, “Compositions and methods for treatment of neovascular diseases” (The Scripps Research Institute, priority 2004, dated 2009)

Tested on: deep retinal vascular network formation in neonatal Balb/C mice
Experiment: Neonatal mouse retinal angiogenesis model
Assay type: in vivo
Source text: Description of the Model. Immediately after birth (postnatal day zero; “P0”), retinal vasculature is virtually absent in the mouse. By four weeks after birth (P28) the retina has attained an adult pattern of retinal vessels coincident with the onset of vision. Physiological neovascularization of the retina occurs during this period via a stereotypical, biphasic developmental pattern of angiogenesis. During the primary phase of retinal vascular development, spoke-like peripapillary vessels grow radially from the central retinal artery and vein, becoming progressively interconnected by a capillary plexus that forms between them. This “inner retinal plexus” grows in area, volume and complexity, centrifugally, as a monolayer within the nerve fiber layer during the first seven to ten days following birth.
The second phase of retinal vessel formation begins between postnatal days 7 (P7) and 10 (P10) when collateral branches sprout from capillaries of the superficial plexus and penetrate into the retina where their tips branch and anastamose laterally to form a planar “deep vascular plexus”. While the deep vascular plexus is in place by P14, it undergoes extensive remodeling from P14 to P21. It is of interest to note that the formation of these vascular networks in the neonatal mouse are strikingly similar to the events occurring in the third trimester human fetus.
Advantages and Quantification of the Model. The reproducibility of the murine retinal development process and its easy accessibility in neonatal animals provide an opportunity to assess the efficacy of antiangiogenic compounds in a physiologically relevant model of angiogenesis. Additional advantages of the neonatal mouse model are the ability to qualitatively and quantitatively evaluate the angiostatic effect of putative antagonists of angiogenesis. Angiostatic activity was evaluated based upon the degree of angiogenesis in the deep, outer retinal vascular layer (secondary layer) that develops between P8 and P12. The appearance of the inner blood vessel network (primary layer) was evaluated for normal development and signs of toxicity.
Preparation of Compositions. Peptidomimetic integrin signaling inhibitor Compound (1) is solubilized in PBS at a concentration of about 20 mg/ml in PBS (1× concentration). T2-TrpRS is solubilized in PBS at a concentration of about 0.5 mg/ml (1× concentration). VEGF aptamer (pegaptanib sodium; Compound (2)) is solubilized in PBS at a concentration of about 2 mg/ml (1× concentration) to achieve an injection of approximately 1 μg/eye at 1× concentration. For all combination assays the compounds were prepared at 2 or 3 times the 1× concentration of each material and then combined to produce a final solution containing each individual compound at the same concentration as was used alone (e.g., 1×, 0.5×, 0.25× or 0.1×, as the case may be). For all assays, a single injection of 0.5 μl of PBS solutions of the drugs was administered intravitreally regardless of the number of compounds being injected. As used herein, the term “0.1×” refers to one tenth of the 1× concentration of a given material, “0.25×” refers to one quarter of the 1× concentration of a given material, “0.5×” refers to one half of the 1× concentration of a given material, and so forth for similar designations.
An in vivo angiogenesis assay in the neonatal mouse (Balb/C, The Jackson Laboratory, Bar Harbor, Me.) was used to evaluate the angiostatic activity of integrin signaling inhibitor Compound (1), T2-TrpRS, and VEGF aptamer Compound (2). Intravitreous injection and retina isolation was performed with a dissecting microscope (SMZ 645, Nikon, Japan). […] The samples (0.5 μl) were injected with a Hamilton syringe fitted with a 32-gauge needle (Hamilton Company, Reno, Nev.). The injection was made between the equator and the corneal limbus. During injection, the location of the needle tip was monitored by direct visualization to determine that it was in the vitreal cavity. […]

[1] = Ex 1, 0.5× (1×=2 mg/ml), intravitreal P8, read P12
[2] = Ex 2, 0.1× of each (1×: T2-TrpRS 0.5, Comp. (2) 2 mg/ml), intravitreal P4, read P12
[3] = Ex 3, 1× of each (T2-TrpRS 0.5, Comp. (2) 2 mg/ml), intravitreal P4, read P12
[4] = Ex 4, 0.5× (1×=2 mg/ml), intravitreal P4, read P12
[5] = Ex 6, 1× of each (T2-TrpRS 0.5, Comp. (2) 2 mg/ml), intravitreal P4, read P12
[6] = Ex 7, 1× (T2-TrpRS 0.5, Comp. (2) 2 mg/ml), intravitreal P4, read P12
[7] = Ex 8, 0.25× (1×=2 mg/ml), intravitreal P4, read P12
[8] = Ex 9, 1× of each (Comp. (1) 20, Comp. (2) 2, T2-TrpRS 0.5 mg/ml), intravitreal P4, read P12
[9] = Table 12, composite data from the Examples, 1× (Compound (2) 0.5× to 1×)
[10] = Table 13A, 1-2 μg per eye, intravitreal P7, read P12
[11] = Table 13C low dosing, 0.1x (integrin ant. 1.0 μg, VEGF apt. 0.20 μg, T2-TrpRS 0.025 μg)

Substance: pegaptanib sodium [Compound (2)]
- inhibition of neovascularization (0.1× concentrations (1 μg/eye integrin antagonist, 0.2 μg/eye VEGF aptamer, 0.025 μg/eye T2-TrpRS)): negligible
- % of eyes with 0-10% inhibition of deep vascular layer [1]: 20%
- % of eyes with 10-25% inhibition of deep vascular layer [1]: 20%
- % of eyes with 25-50% inhibition of deep vascular layer [1]: 20%
- % of eyes with 50-75% inhibition of deep vascular layer [1]: 20%
- % of eyes with 75-100% inhibition of deep vascular layer [1]: 40%
- % of eyes with 0-10% inhibition of deep vascular layer [2]: 87.5%
- % of eyes with 10-25% inhibition of deep vascular layer [2]: 12.5%
- % of eyes with 25-50% inhibition of deep vascular layer [2]: 0%
- % of eyes with 50-75% inhibition of deep vascular layer [2]: 0%
- % of eyes with 75-100% inhibition of deep vascular layer [2]: 0%
- % of eyes with 100% inhibition of deep vascular layer [2]: 0%
- % of eyes with >95% inhibition of deep vascular layer [2]: 0%
- % of eyes with 0-10% inhibition of deep vascular layer [3]: 37.5%
- % of eyes with 10-25% inhibition of deep vascular layer [3]: 12.5%
- % of eyes with 25-50% inhibition of deep vascular layer [3]: 12.5%
- % of eyes with 50-75% inhibition of deep vascular layer [3]: 12.5%
- % of eyes with 75-100% inhibition of deep vascular layer [3]: 25%
- % of eyes with 100% inhibition of deep vascular layer [3]: 0%
- % of eyes with >95% inhibition of deep vascular layer [3]: 0%
- % of eyes with 0-10% inhibition of deep vascular layer [4]: 60%
- % of eyes with 10-25% inhibition of deep vascular layer [4]: 30%
- % of eyes with 25-50% inhibition of deep vascular layer [4]: 0%
- % of eyes with 50-75% inhibition of deep vascular layer [4]: 0%
- % of eyes with 75-100% inhibition of deep vascular layer [4]: 10%
- % of eyes with 100% inhibition of deep vascular layer [4]: 0%
- % of eyes with >95% inhibition of deep vascular layer [4]: 0%
- % of eyes with 0-10% inhibition of deep vascular layer [5]: 37.5%
- % of eyes with 10-25% inhibition of deep vascular layer [5]: 25%
- % of eyes with 25-50% inhibition of deep vascular layer [5]: 12.5%
- % of eyes with 50-75% inhibition of deep vascular layer [5]: 25%
- % of eyes with 75-100% inhibition of deep vascular layer [5]: 0%
- % of eyes with 100% inhibition of deep vascular layer [5]: 0%
- % of eyes with >95% inhibition of deep vascular layer [5]: 0%
- % of eyes with 0-10% inhibition of deep vascular layer [6]: 25%
- % of eyes with 10-25% inhibition of deep vascular layer [6]: 25%
- % of eyes with 25-50% inhibition of deep vascular layer [6]: 0%
- % of eyes with 50-75% inhibition of deep vascular layer [6]: 12.5%
- % of eyes with 75-100% inhibition of deep vascular layer [6]: 37.5%
- % of eyes with 100% inhibition of deep vascular layer [6]: 0%
- % of eyes with >95% inhibition of deep vascular layer [6]: 0%
- % of eyes with 0-10% inhibition of deep vascular layer [7]: 54.5%
- % of eyes with 10-25% inhibition of deep vascular layer [7]: 36.4%
- % of eyes with 25-50% inhibition of deep vascular layer [7]: 0%
- % of eyes with 50-75% inhibition of deep vascular layer [7]: 0%
- % of eyes with 75-100% inhibition of deep vascular layer [7]: 9.1%
- % of eyes with 100% inhibition of deep vascular layer [7]: 0%
- % of eyes with >95% inhibition of deep vascular layer [7]: 0%
- % of eyes with 0-10% inhibition of deep vascular layer [8]: 25%
- % of eyes with 10-25% inhibition of deep vascular layer [8]: 0%
- % of eyes with 25-50% inhibition of deep vascular layer [8]: 12.5%
- % of eyes with 50-75% inhibition of deep vascular layer [8]: 12.5%
- % of eyes with 75-100% inhibition of deep vascular layer [8]: 50%
- % of eyes with 100% inhibition of deep vascular layer [8]: 12.5%
- % of eyes with >95% inhibition of deep vascular layer [8]: 25%
- % of mice with 0-10% inhibition of deep vascular layer [9]: 39.1%
- % of mice with 10-25% inhibition of deep vascular layer [9]: 20%
- % of mice with 25-50% inhibition of deep vascular layer [9]: 7.6%
- % of mice with 50-75% inhibition of deep vascular layer [9]: 11.9%
- % of mice with 75-100% inhibition of deep vascular layer [9]: 21.4%
- % of mice with 100% inhibition of deep vascular layer [9]: 2.4%
- % of mice with >95% inhibition of deep vascular layer [9]: 4.7%
- Percentage of retinas with 0-10% neovascular inhibition [10]: 39.1%
- Percentage of retinas with 10-25% neovascular inhibition [10]: 20.0%
- Percentage of retinas with 25-50% neovascular inhibition [10]: 7.6%
- Percentage of retinas with 50-75% neovascular inhibition [10]: 11.9%
- Percentage of retinas with 100% neovascular inhibition [10]: 2.4%
- Percentage of retinas with >75% neovascular inhibition [10]: 21.4%
- Percentage of retinas with >90% neovascular inhibition [10]: 4.7%
- Percentage of retinas with 0-10% neovascular inhibition [11]: 75%
- Percentage of retinas with 10-25% neovascular inhibition [11]: 25%
- Percentage of retinas with 25-50% neovascular inhibition [11]: 0%
- Percentage of retinas with 50-75% neovascular inhibition [11]: 0%
- Percentage of retinas with 100% neovascular inhibition [11]: 0%
- Percentage of retinas with >75% neovascular inhibition [11]: 0%
- Percentage of retinas with >90% neovascular inhibition [11]: 0%
- retinas that exhibited over 75% inhibition (monotherapy at optimal dose): 21%
- retinas unaffected by injection (monotherapy at the maximum individual dose): around 35%
